Each compound was assayed against Acetylcholinesterase (AChE; E.C. 3.1.1.7) from Electrophorus electricus (Electrophorus electricus, UniProt O42275) (assay: Ellman assay, absorbance at […] nm).
Type: biochemical

Acetylcholinesterase (AChE; E.C. 3.1.1.7) from Electrophorus electricus, sequence (O42275 24-633): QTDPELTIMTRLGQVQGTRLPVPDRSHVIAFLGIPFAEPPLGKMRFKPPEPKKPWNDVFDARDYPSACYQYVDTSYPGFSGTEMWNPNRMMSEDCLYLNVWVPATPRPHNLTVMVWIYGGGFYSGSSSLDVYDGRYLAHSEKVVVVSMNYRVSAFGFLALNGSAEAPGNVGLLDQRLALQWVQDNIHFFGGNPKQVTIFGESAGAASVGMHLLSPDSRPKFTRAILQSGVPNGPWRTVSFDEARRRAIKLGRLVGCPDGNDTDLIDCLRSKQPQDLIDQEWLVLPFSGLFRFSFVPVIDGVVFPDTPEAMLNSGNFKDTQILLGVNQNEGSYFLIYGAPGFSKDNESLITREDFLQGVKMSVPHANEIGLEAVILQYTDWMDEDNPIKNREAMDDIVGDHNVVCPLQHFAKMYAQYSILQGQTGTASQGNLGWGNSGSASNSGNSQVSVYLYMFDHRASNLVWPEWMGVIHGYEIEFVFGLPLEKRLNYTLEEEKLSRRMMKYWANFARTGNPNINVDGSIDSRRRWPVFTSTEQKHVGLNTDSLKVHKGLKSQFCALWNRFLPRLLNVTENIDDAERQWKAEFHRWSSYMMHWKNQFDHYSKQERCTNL

| SMILES | IC50 |
| --- | --- |
| Cc1cc(=O)oc2c(-c3nnc(N)s3)c(O)ccc12 [compound 2, 2] | 0.218 ± 0.0084 µM |
| CNc1nnc(-c2c(O)ccc3c(C)cc(=O)oc23)s1 [compound 3, 3] | 0.211 ± 0.0123 µM |
| CC(=O)Nc1nnc(-c2c(O)ccc3c(C)cc(=O)oc23)s1 [compound 4, 4] | 0.181 ± 0.0123 µM |
| Cc1cc(=O)oc2c(-c3nnc(Nc4ccccc4)s3)c(O)ccc12 [compound 5, 5] | 0.299 ± 0.0194 µM |
